Test results taken from publication PMC6368365, “Didehydro-Cortistatin A Inhibits HIV-1 by Specifically Binding to the Unstructured Basic Region of Tat” (mBio, 2019).

Key:
Tat-TAR interaction = Tat-TAR interaction (Human immunodeficiency virus type 1 group M subtype B, UniProt P69697); test: ChIP of FLAG-Tat followed by qRT-PCR of TAR in HeLa-CD4-LTR-Luc cells; type: cell-based, HIV-1; design: expressed in transfected cells; host or cells: HeLa-CD4-LTR-Luc; conditions: compounds 25 nM, 48 h
Excerpt: FIG 6 dCA binding to Tat disrupts Tat-TAR interaction. (A) EMSA of full-length Tat with TAR in the presence of dCA. Raltegravir (Ralt.) and deleted bulge TAR (ΔTAR) were used as negative controls. Data are representative of n = 3 independent experiments. (B) EMSA of Tat’s basic domain with TAR in the presence of increasing concentrations of dCA to Tat’s basic peptide. Pep B is a peptide encompassing the basic domain of HIV Tat (^45ISYGRKKRRQRRRAP^59). Pep C (^69LSKQPASQPRGDPTG^83) and unlabeled or cold TAR (TARc) were used as negative controls. Neomycin, which binds to Tat and TAR, was used as a positive control. Ratios of compounds (or TARc) concentrations to peptide are shown. Data are representative of n = 3 independent experiments. […] Shown are ITC results from binding of dCA (left) or Tat peptide (right) to TAR at 25°C. […] For the lower plots, results were converted to molar heats and plotted against the molar ratio of dCA or peptide to RNA. […] Luciferase activity was determined relative to protein concentration (Bradford assay) (Fig. S9A). […] Statistical significance was determined using one-way ANOVA with post hoc Tukey’s test with 3 technical replicates. ns, not significant; ***, P < 0.0001. […]
Chromatin immunoprecipitation assay (CHIP). […] The relative proportions of co-immunoprecipitated DNA were determined on the basis of the threshold cycle for qRT-PCR. […]

Trp^11 of Tat protein = target: T1, Trp^11 of Tat protein (Human immunodeficiency virus type 1 group M subtype B, UniProt P69697); test: Trp fluorescence assay of recombinant Tat; type: binding, HIV-1; conditions: for effect on intrinsic Trp fluorescence of Tat: compound/Tat ratio of 7.5/1
T1 construct: pTatC6H-1 (NIH AIDS Reagent Program) plasmid encoding C-terminal 6xHistidine Tat1-86 (HXB3, subtype B); made in house; host or cells: E. coli BL21 (plasmid pTatC6H-1, NIH AIDS Reagent Program)
Excerpt: Next, we investigated whether dCA mediated conformational changes in Tat. NMR studies have reported the fluorescence of Tat’s unique Trp^11 to be highly sensitive to conformational modifications ([2], [15]). As such, we assessed Tat fluorescence between wavelengths of 310 nm and 410 nm (Fig. 5A, left).
FIG 5 dCA stabilizes Tat structure. (A) Trp fluorescence assays. (Left) Schematic of the assay. (Center) DMSO, dCA (7.5× Tat concentration) or raltegravir (Ralt.; 7.5× Tat concentration) was incubated with Tat. The fluorescence of the Trp^11 of Tat protein was measured at the indicated wavelengths. Acrylamide (250 mM) was used as a quenching control of Tat fluorescence. (Right) Peak absorbance (λmax) versus increasing fold ratios of compounds to Tat protein. Data are representative of n = 3 independent experiments. (B) DARTS assays. Tat was incubated with DMSO or dCA, at increasing concentrations, in the presence of increasing concentrations of proteinase K (PK). […] Data are representative of n = 2 independent experiments. (C) Steady state of Tat in the presence of dCA in vivo. HeLa-CD4-LTR-Luc cells were incubated with recombinant Tat and then washed and incubated with the indicated compounds for 6 hours. […] (Left) Western blot representative of n = 4 independent experiments. MG132 was used as a positive control of Tat protection from degradation, and raltegravir was used as a negative control. (Right) Densitometry of the Tat band normalized to the actin band. Results represent the mean ± SEM from n = 4 independent experiments. Statistical significance was determined using one-way ANOVA with post hoc Tukey’s test. ns, not significant; ***, P < 0.0001; **, P < 0.001.
Recombinant Tat (2.5 μM) was incubated with different concentrations of dCA or raltegravir in a 96-well plate. The solution was excited at 280 nm, and the emission of Trp fluorescence was read from 310 to 410 nm. The background induced by the compounds alone or buffer of dilution was subtracted from the Trp signal. Acrylamide (250 mM) was used as a quencher of the fluorescence.

T1 sequence (P69697 whole entry): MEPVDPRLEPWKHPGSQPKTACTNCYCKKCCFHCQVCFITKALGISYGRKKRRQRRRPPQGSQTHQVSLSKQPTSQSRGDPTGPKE
Tat-TAR interaction, sequence (P69697 whole entry, the tested form may be a part): as the sequence (P69697 whole entry) above

| SMILES | Tat-TAR interaction in cells (ChIP) (Tat-TAR interaction) | λmax of Tat Trp fluorescence (Trp^11 of Tat protein; compound/Tat ratio 7.5/1, Tat alone 360 nm) [nm] | effect on intrinsic Trp fluorescence of Tat (Trp^11 of Tat protein) | I330/350 ratio of Tat Trp fluorescence (Trp^11 of Tat protein; dCA/Tat ratio of 7.5/1, Tat alone 0.73) |
| --- | --- | --- | --- | --- |
| CN(C)C1CC23CCC4(O2)C(=CCC2(C)C(c5ccc6ccncc6c5)=CCC24)C=C3C(O)C1O (stereo not drawn) [dCA, didehydro-cortistatin A] | reduced this Tat-TAR interaction to similar levels as FLAG-Tat Mut | 350 | decreased intensity of the Trp fluorescence | 0.893 |
| Cc1nnc(C(=O)NC(C)(C)c2nc(C(=O)NCc3ccc(F)cc3)c(O)c(=O)n2C)o1 [raltegravir, reference compound] | A Tat-TAR interaction was detected | – | no effect on the intrinsic fluorescence of Tat | – |
